Laboratory results published in US6087395A, “Isocarbacyclin derivatives as apoptosis inhibitors” (Japan Science and Technology Corporation, priority 1997, dated 2000).

Columns and labels:
[1] = rhesus monkey, in vivo
[2] = test system: hippocampal neurons; assay: Hippocampal neuron apoptosis induced by high-oxygen (50% oxygen) incubation; type: cell-based, rat (Wistar strain, fetal); conditions: 48 hours; for survival rate of neurons at 3000 nM (FIG. 2): control = neurons in 9% oxygen; for survival rate of hippocampal neurons incubated in 50% oxygen (FIG. 1): 5 μM (bFGF 50 nM), neurons in 9% oxygen as control; for IC50: Rattus norvegicus, Hippocampal neuron, read-out: IC50 (inhibition of hippocampal neural apoptosis); for dose-dependent effect on hippocampal neural apoptosis / neuroprotection (FIG. 2): range of concentrations tested, n=4
Protocol: Effect of 15R-TIC and Deoxy-TIC on hippocampal neuron apoptosis induced by a high-oxygen incubation was tested.
Isocarbacyclin was a pure sample supplied from Teijin Co., Ltd. 15S-TIC was prepared in accordance with the method disclosed in Example 3 of JP-A 245,498/96 by using 15S-16-m-tolyl-17,18,19,20-tetra-nor-carbacyclin which is also disclosed in Example 2 of the same Publication JP-A 245,498/96. The 15R-TIC was prepared by the same method as disclosed in Example 3 of the Publication JP-A 245,498/96. bFGF was the commercially available one.
Hippocampal region was cut out from the fetal rat brain which was aseptically isolated from a pregnant rat (Wistar strain) of […] and the hippocampal region was dispersed into neurons by shaking culture for 30 minutes in a PBS (Ca- and Mg-free) containing DL-cysteine (0.2 mg/ml), bovine serum albumin (0.2 mg/ml), glucose (5 mg/ml), DNase I (0.01%) and papain (9 units/ml). After that, each neutron was planted at the density of 5×10^5 cells/cm^2 on a 24-well plate (coated with polyethyleneimine) filled with a DME/F-12 medium (containing 5% equine serum and 5% fetal bovine serums and incubated for two days in a 5% carbon dioxide gas incubator (9% oxygen). After that, the culture medium was substituted with an DME/F-12 medium (containing 5 μg/ml of transferrin, 5 μg/ml of insulin and 5 nM progasterone) wherefrom serum was removed. Then each sample to be tested was added to the medium, and after 30 minutes, transfered into 50% oxygen. After incubating in 50% oxygen for 48 hours, the survival rate of the neurons was measured. The neurons in 9% oxygen were also added to each sample and the survival rate was measured.
Which regard to the survival rate, the neurons were immobilized by 4% paraformaldehyde, stained with anti-MAP2 antibody and colored by DAB, and the cells positive to MAP2 were counted from the 200-fold enlarged picture whereupon the survival rate was calculated.

[3] = test system: hippocampal CA1 pyramidal neurons; assay: Hippocampal CA1 pyramidal neuron apoptosis induced by transient forebrain ischemia, in vivo; design: species or system mongolian gerbil; conditions: continuous infusion into left lateral ventricle for 7 days
Protocol: Effect of 15R-TIC on hippocampal CA1 pyramidal neurons apoptosis induced by ischemic damage in mongolian gerbils was tested in vivo.
To examine whether 15R-TIC can prevent nouronal death in vivo, using an osmotic mini-pomp, 15R-TIC solution was continuously infused for 7 days (started 2 days before the transient ischemia and ended at 5 days) into the left lateral ventricle of gerbils that had been subjected to a transient forebrain ischemia for 3 minutes. Survival number of CA1 pyramidal neurons was assessed by counting neurons with cell bodies larger than 10 μm in the Nissl-staining sections.

Row | Compound | pass through blood-brain-barrier / transfer into brain ([1]; iv) | survival rate of hippocampal neurons incubated in 50% oxygen (FIG. 1) [2] | dose-dependent effect on hippocampal neural apoptosis / neuroprotection (FIG. 2) [2] | other results
1 | COC(=O)CCCCC1=C[C@H]2C[C@@H](O)[C@H](/C=C/[C@H](O)Cc3cccc(C)c3)[C@H]2C1 [15R-TIC methyl ester] | efficiently transfererd into the brain | – | – | conversion in the brain (prodrug behaviour) [1]: is converted to 15R-TIC in the brain
2 | Cc1cccc(C[C@@H](O)/C=C/[C@@H]2[C@H]3CC(CCCCC(=O)O)=C[C@H]3C[C@H]2O)c1 [15R-TIC, 15R-16-(m-tolyl)-17,18,19,20-tetranorisocarbacyclin] | – | an increase in the survival rate of neurons was observed to the same or even better extent as compared with the case of bFGF | dose-dependent inhibitory effect on neural apoptosis | survival rate of neurons at 3000 nM (FIG. 2) [2]: equivalent to the control; IC50 [2]: ~300 nM; loss of CA1 pyramidal neurons induced by forebrain ischemia [3]: blocked the loss of CA1 pyramidal neurons induced by forebrain ischemia; number of CA1 pyramidal neurons ([3]; in a 20 μm thick section, n=4, 3 minutes transient forebrain ischemia, ischemia-free control 1061±220, vehicle 142±28): 984±299
3 | Cc1cccc(CC/C=C/[C@@H]2[C@H]3CC(CCCCC(=O)O)=C[C@H]3C[C@H]2O)c1 [Deoxy-TIC, 15-Deoxy-16-(m-tolyl)-17,18,19,20-tetranorisocarbacyclin] | – | an increase in the survival rate of neurons was observed to the same or even better extent as compared with the case of bFGF | dose-dependent inhibitory effect on neural apoptosis | survival rate of neurons at 3000 nM (FIG. 2) [2]: equivalent to the control; IC50 [2]: ~30 nM
4 | CCCCC[C@H](O)/C=C/[C@@H]1[C@H]2CC(CCCCC(=O)O)=C[C@H]2C[C@H]1O [isocarbacyclin] | – | greatly reduced by apoptosis induced by a high-oxygen condition as same as under the control condition | did not have any effect on neuroprotection in the range of concentrations tested | –
5 | Cc1cccc(C[C@H](O)/C=C/[C@@H]2[C@H]3CC(CCCCC(=O)O)=C[C@H]3C[C@H]2O)c1 [15S-TIC, reference compound] | – | greatly reduced by apoptosis induced by a high-oxygen condition as same as under the control condition | did not have any effect on neuroprotection in the range of concentrations tested | –
6 | Cc1cccc(C[C@@H](O)/C=C/[C@@H]2[C@H]3CC(CCCCC(=O)O[11CH3])=C[C@H]3C[C@H]2O)c1 [RTC] | equivalent pass through blood-brain-barrier | – | – | –
7 | COC(=O)CCCCC1=C[C@H]2C[C@@H](O)[C@H](/C=C/[C@H](O)Cc3cccc([11CH3])c3)[C@H]2C1 [RTA] | equivalent pass through blood-brain-barrier | – | – | conversion in the brain (prodrug behaviour) [1]: could serve as a prodrug for 15R-TIC; retention in the brain ([1]; iv): retained in the brain further than RTC
